This is an account of results in publication PMC10002984, “Dual PTP1B/TC-PTP Inhibitors: Biological Evaluation of 3-(Hydroxymethyl)cinnoline-4(1H)-Ones” (International Journal of Molecular Sciences, 2023).

The subject of assay [1] is insulin receptor gene (InsR). Kind of assay: Gene expression in the liver of obese rats (qPCR), insulin receptor gene. The format is in vivo, rat. Particulars: five-day treatment, difference with Ob group not significant. How it is done:
(§1) Further, six groups were formed: control (Con, n = 10), obesity (Ob, n = 10), obese rats with five-day treatment with compounds 1 (Ob + 1, n = 5), 2 (Ob + 2, n = 5), 3 (Ob + 3, n = 10), and 4 (Ob + 4, n = 10). All compounds were administered in DMSO (300 µL) at a daily dose of 7 mg/kg (1 and 2), 8 mg/kg (3), and 10 mg/kg (4) (i.p.), based on the results of the preliminary experiments. The used doses of compounds 1–4, in terms of the number of moles of each compound per kg of animal body weight, were equivalent. Control and obese rats received DMSO in the same volumes (300 µL), instead of the tested compounds. During the five days of the experiment, all animals were transferred to standard food and had free access to food and drinking water. […]
(§2) The total RNA was isolated from the liver samples of rats using the “ExtractRNA Reagent” (Evrogen, Moscow, Russia), and the samples containing 1 μg of RNA were transcribed to cDNA using the random oligodeoxynucleotide primers and the “MMLV RT kit” (Evrogen, Russia). […] The amplified signals were detected using the “Applied Biosystems® 7500 Real-Time PCR System” (Life Technologies, Carlsbad, CA, USA, Thermo Fisher Scientific Inc., USA). […] The obtained data were calculated with the delta–delta Ct method and expressed as a fold expression, relative to the corresponding control. […]

Assay [2] relates to PTP1B gene. The assay is described as follows: Gene expression in the liver of obese rats (qPCR), PTP1B gene. The format is in vivo, rat. The note with it: five-day treatment, vs Ob group. As to the method:
as §1, §2

The subject of assay [3] is leptin receptor gene (LepR). Kind of assay: Gene expression in the liver of obese rats (qPCR), leptin receptor gene. It counts as in vivo, rat. Particulars: five-day treatment, difference with Ob group not significant. How it is done: as §1, §2
For assay [4], the system named is male rats with HFD-induced obesity. Kind of assay: Body weight and food intake in obese rats, five-day treatment. The format is in vivo, male Wistar rats. Particulars: five-day treatment i.p., 3 8 mg/kg/day, 4 10 mg/kg/day; for reduction of body weight in obese rats: p < 0.05 vs untreated obese animals; for reduction of the consumption of dry standard food: obese rats. As to the method: The male Wistar rats (at the start of the experiment the age of the animals was 2-months, and at the end of the experiment their age was 6-months) were obtained from the Rappolovo animal facility (Russia). The animals were housed in plastic cages, five animals in each, with a normal light–dark cycle (12 h/12 h), a temperature of 22 ± 3 °C, and free access to food and water. All experiments were approved by the Institutional Animal Care and Use Committee at the Sechenov Institute of Evolutionary Physiology and Biochemistry (St. Petersburg, Russia) (protocol No 02/02-2020, 19 February 2020) and according to The Guide for the Care and Use of Laboratory Animals and the European Communities Council Directive of 1986 (86/609/EEC). All efforts were made to minimize animal suffering and reduce the number of experimental animals.
(§3) The obesity model was induced at 16-weeks (starting at two months of age) using a high-fat diet. Control animals received standard laboratory chow pellets. The high-fat diet included supplements of 5–7 g of a fat mixture containing 52.4% pork lard, 41.7% curd, 5% liver, 0.5% L-methionine, 0.2% baker’s yeast, and 0.2% sodium chloride. After 16-weeks on a high-fat diet, the animals with increased body weight, glucose intolerance, and hyperinsulinemia, and hyperleptinemia were selected for further experiments. The glucose intolerance was estimated according to the results of the glucose tolerance test (GTT). In the GTT, 120 min after glucose loading, the blood glucose levels in obese rats were above 7 mM, and the AUC0-120 values for the curve “glucose concentration (mM)–time (minutes)” were above 30%, as compared to the average AUC0-120 values in the control group.
Further, six groups were formed: control (Con, n = 10), obesity (Ob, n = 10), obese rats with five-day treatment with compounds 1 (Ob + 1, n = 5), 2 (Ob + 2, n = 5), 3 (Ob + 3, n = 10), and 4 (Ob + 4, n = 10). All compounds were administered in DMSO (300 µL) at a daily dose of 7 mg/kg (1 and 2), 8 mg/kg (3), and 10 mg/kg (4) (i.p.), based on the results of the preliminary experiments. The used doses of compounds 1–4, in terms of the number of moles of each compound per kg of animal body weight, were equivalent. Control and obese rats received DMSO in the same volumes (300 µL), instead of the tested compounds. During the five days of the experiment, all animals were transferred to standard food and had free access to food and drinking water. […] The test was carried out on the morning of the next day after the last (fifth) injection of the compounds or DMSO, after a 10 h fast. The rest of the animals (n = 5 in each group) were anesthetized and decapitated on the last day of the experiment. […]

The test system is the same in assay [5]. Kind of assay: Glucose tolerance test in obese rats after five-day treatment. The format is in vivo, male Wistar rats. Particulars: 4 10 mg/kg/day; for reduction of AUC0-120 of the glucose concentration curve vs untreated animals: GTT after five-day treatment, p < 0.05 vs Ob group; for reduction of AUC0-120 of the glucose concentration curve vs untreated animals / reduction of glucose level 120 min after glucose load vs untreated obese animals: 3 8 mg/kg/day; for reduction of glucose level 120 min after glucose load vs untreated obese animals: GTT glucose 2 g/kg i.p. after five-day treatment.
Source text: as §3
Further, six groups were formed: control (Con, n = 10), obesity (Ob, n = 10), obese rats with five-day treatment with compounds 1 (Ob + 1, n = 5), 2 (Ob + 2, n = 5), 3 (Ob + 3, n = 10), and 4 (Ob + 4, n = 10). All compounds were administered in DMSO (300 µL) at a daily dose of 7 mg/kg (1 and 2), 8 mg/kg (3), and 10 mg/kg (4) (i.p.), based on the results of the preliminary experiments. The used doses of compounds 1–4, in terms of the number of moles of each compound per kg of animal body weight, were equivalent. Control and obese rats received DMSO in the same volumes (300 µL), instead of the tested compounds. During the five days of the experiment, all animals were transferred to standard food and had free access to food and drinking water. […] The test was carried out on the morning of the next day after the last (fifth) injection of the compounds or DMSO, after a 10 h fast. The rest of the animals (n = 5 in each group) were anesthetized and decapitated on the last day of the experiment. The blood and liver samples were taken to measure blood glucose and hormone levels and gene expression in the liver.
The glucose levels in the blood obtained from the tail vein were measured using a glucometer (Life Scan Johnson & Johnson, Denmark) and the test strips “One Touch Ultra” (USA). The levels of insulin and leptin in rat serum were estimated with the “Rat Insulin ELISA” (Mercodia AB, Uppsala, Sweden) and “ELISA for Leptin, Rat” (Cloud-Clone Corporation, Houston, TX, USA) kits. The GTT was carried out using a single injection of glucose (2 g/kg, i.p.) after 10 h of fasting, as described earlier. The blood glucose levels were measured before (0 min) and 15, 30, 60, and 120 min after the glucose load.

As for `O=c1c(CO)n[nH]c2ccc(Cl)cc12` [Compound 3, 6-Chloro-3-(hydroxymethyl)cinnolin-4(1H)-one], the “expression of the gene encoding the insulin receptor in the liver” value in assay [1] is listed as “slight decrease”. In assay [2], the “expression of the PTP1B gene in the liver” value was “significant difference to the Ob group”. Further, in assay [3], the “expression of the gene encoding the leptin receptor in the liver” value is listed as “slight decrease”. Further, in assay [4], the “reduction of body weight in obese rats” value turned out to be 22.2 ± 4.5 g and the “reduction of the consumption of dry standard food” value was determined as 46%. Moreover, in assay [5], the “reduction of AUC0-120 of the glucose concentration curve vs untreated animals” value is 24% and the “reduction of glucose level 120 min after glucose load vs untreated obese animals” value is 20%.

As for `O=c1c(CO)n[nH]c2ccc(Br)cc12` [Compound 4, 6-Bromo-3-(hydroxymethyl)cinnolin-4(1H)-one], the “expression of the gene encoding the insulin receptor in the liver” value in assay [1] is “slight decrease”. Also, the “expression of the PTP1B gene in the liver” value in assay [2] was “significant difference to the Ob group”. Further, the “expression of the gene encoding the leptin receptor in the liver” value in assay [3] is “slight decrease”. Moreover, in assay [4], the “reduction of body weight in obese rats” value is listed as 22.6 ± 4.0 g and the “reduction of the consumption of dry standard food” value stood at 39%. Besides, in assay [5], the “reduction of AUC0-120 of the glucose concentration curve vs untreated animals” value worked out at 20% and the “reduction of glucose level 120 min after glucose load vs untreated obese animals” value is 17%. Moreover, in assay [5] (obese rats, five-day treatment), the “glucose sensitivity in the glucose tolerance test” value is “improved”.
